In brackets after ≈: the same amount, converted by molar mass. Read-outs that look alike come from different tables or passages of the source.
Key:
R. oryzae UCP1295 [1] = assay: Screening of the Pandemic Response Box library at 5 µM; format: cell-based, Rhizopus oryzae; conditions: for % of growth inhibition, Mean: 48 h; for inhibition at 5 µM: Rhizopus arrhizus, UCP1295, 48 h
Summary of the method: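 Compounds at 5 μM in RPMI 1640 with 2% glucose and MOPS (0.165 mol/L, pH 7.2), with conidia at 2 × 10^5/mL, incubated 48 h at 37 °C in 5% CO2. Growth read by OD at 600 nm; hits defined as ≥60% inhibition. Posaconazole (5 μM) and 1% DMSO as controls.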

R. oryzae [2] = assay: Antifungal susceptibility testing (broth microdilution, MIC and MFC); format: cell-based, Rhizopus oryzae; conditions: Rhizopus arrhizus, 48 h
Procedure: (§1) The susceptibility of the Rhizopus species to MMV396785 (alexidine), MMV1580844, MMV642550 and MMV019724 was determined using the broth microdilution method, according to EUCAST protocols, with modifications. Posaconazole and amphotericin B were also used as reference antifungal drugs because they are commonly used for the treatment of mucormycosis. […] A standardized suspension of conidia (2 × 10^5/mL) was added to the wells and incubated for 48 h at 37 °C, in a 5% CO2 atmosphere. Fungal growth was analyzed via spectrophotometry readings at 600 nm and cell viability was assessed using the XTT reduction assay. Minimum inhibitory concentration (MIC) of each compound was defined as the lowest concentration that inhibits 50% of fungal growth, because these fungi are highly resistant to antifungal drugs and a reduction in half of their growth is relevant. […] MFC values were defined as the lowest drug concentration able to arrest fungal growth.

[3] = test system: R. oryzae, R. microsporus and R. stolonifer; assay: Antifungal susceptibility testing, values stated over the three species; format: cell-based; conditions: over the three Rhizopus species
Procedure: as §1

R. oryzae UCP1295 [4] = assay: Antifungal drug synergy assay, checkerboard method (FICI); format: cell-based, Rhizopus oryzae; conditions: Rhizopus arrhizus, UCP1295, 48 h; drug alone; read-out: MIC50 Alone
Procedure: (§2) Synergistic interactions were evaluated using the checkerboard method according to EUCAST guidelines (EUCAST 2008). R. oryzae conidia (2 × 10^5/mL) were grown in 96-well plates containing supplemented RPMI in the presence of the following selected compounds: […] An inhibition of at least 50% was defined as the cut-off for minimum inhibitory concentration (MIC). Interactions were determined by the fractional inhibitory concentration index (FICI), which was calculated using the following formula: (MIC combined/MIC drug A alone) + (MIC combined/MIC drug B alone). […] The Bliss independence model calculation was performed according to […] colleagues and Zhao and colleagues. The following formula was used to assess drug interaction: […] The results were classified as follows: synergistic effect when Eobs > Eexp; indifference when Eobs = Eexp; antagonistic effect when Eobs < Eexp.

R. microsporus = assay: Antifungal susceptibility testing (broth microdilution, MIC and MFC); format: cell-based, Rhizopus microsporus var. microsporus; conditions: Rhizopus microsporus, 48 h
Procedure: as §1

R. oryzae [5] = assay: Antifungal drug synergy assay, Bliss independence model; format: cell-based, Rhizopus oryzae
Procedure: as §2

R. stolonifer = assay: Antifungal susceptibility testing (broth microdilution, MIC and MFC); format: cell-based, Rhizopus stolonifer; conditions: Rhizopus stolonifer, 48 h
Procedure: as §1

[6] = Table S1, mean of the four values
[7] = lowest concentration that inhibits 50% of fungal growth

Cc1cc(-c2ccccc2)c(C(=O)C(=O)Nc2ccc(N3CCN(c4ncc(F)cn4)CC3)cc2)n1C [MMV1782354]
% of growth inhibition, Mean (R. oryzae UCP1295 [1]; [6]): -38.2%

Nc1nc2c(Cc3cccnc3)c[nH]c2c(=O)[nH]1 [MMV1782355]
% of growth inhibition, Mean (R. oryzae UCP1295 [1]; [6]): -12.7%

CN(O)C(=O)c1cc2c(CN3CCC[C@H]3C(N)=O)cn(Cc3ccc(F)cc3)c2cn1 [MMV1782386]
% of growth inhibition, Mean (R. oryzae UCP1295 [1]; [6]): -4.5%

COC(=O)Nc1nc2c(C)cccc2[nH]1 [MMV1782387]
% of growth inhibition, Mean (R. oryzae UCP1295 [1]; [6]): -30.6%

CNc1nc(=O)[nH]cc1F [MMV1782388]
% of growth inhibition, Mean (R. oryzae UCP1295 [1]; [6]): -27.5%

Cc1cc(C)n(O)c(=O)c1 [MMV1782389]
% of growth inhibition, Mean (R. oryzae UCP1295 [1]; [6]): -20.7%

Cc1cc(C)n2nc(C(=O)NS(=O)(=O)c3c(C)cccc3OC(F)(F)F)nc2n1 [MMV1782402]
% of growth inhibition, Mean (R. oryzae UCP1295 [1]; [6]): -19.8%

CCNC(=O)Nc1cn2c(-c3ncc(CC)cn3)cc(-c3cccnc3)cc2n1 [MMV1782403]
% of growth inhibition, Mean (R. oryzae UCP1295 [1]; [6]): -42.7%

O=S(=O)(NCB(O)O)c1ccc(-c2nnn[nH]2)cc1C(F)(F)F [MMV1782411]
% of growth inhibition, Mean (R. oryzae UCP1295 [1]; [6]): -7.7%

NC(=O)C(c1ccccc1)(c1ccccc1)[C@H]1CCCN(CCc2ccc3c(c2)CCO3)C1 [MMV1782412]
% of growth inhibition, Mean (R. oryzae UCP1295 [1]; [6]): -1.5%

CC[C@@H]([C@H](C)O)n1ncn(-c2ccc(N3CCN(c4ccc(OC[C@@H]5CO[C@@](Cn6cncn6)(c6ccc(F)cc6F)C5)cc4)CC3)cc2)c1=O [Posaconazole, reference compound]
MIC50 (R. oryzae [2]; [7]): 1.25 µM (≈ 0.876 µg/mL)
MFC (R. oryzae [2]; subculture in drug-free medium): > 20 µM
inhibition at 5 µM (R. oryzae UCP1295 [1]; Table S1, mean of the four values, read-out: % of growth inhibition, Mean): 56.3%
inhibition at 5 µM (R. oryzae UCP1295 [1]; optical density 600 nm, read-out: Growth Inhibition): 56%
Viability Inhibition (XTT) (R. oryzae UCP1295 [1]; XTT reduction): 73%
MFC [3]: > 20 µM
MIC [3]: 0.63 to 2.5 µM (≈ 0.441 to 1.75 µg/mL)
MIC (R. oryzae UCP1295 [4]): 1.25 µM
MIC50 (R. microsporus; [7]): 2.5 µM (≈ 1.75 µg/mL)
MFC (R. microsporus; subculture in drug-free medium): > 20 µM
Efficacy of Drugs Alone (% of Inhibition), MIC50 (R. oryzae [5]; at MIC50): 63.4 % of Inhibition
Efficacy of Drugs Alone (% of Inhibition), ½ MIC50 (R. oryzae [5]; at ½ MIC50): 6.5 % of Inhibition
MIC50 (R. stolonifer; [7]): 0.63 µM (≈ 0.441 µg/mL)
MFC (R. stolonifer; subculture in drug-free medium): > 20 µM
